“And” between values parts separate entries of the source, which are not always exact repeats. Equal values may be shown once. “Also recorded” adds a separate entry of the source.
Molecular target: mitochondrial ceramidase (Rattus norvegicus, UniProt Q91XT9)
Assay: mitochondrial ceramidase (mt-CDase) activity, radioactive assay or HPLC assay
Type: biochemical
Details: for effect on mt-CDase activity (in words): concentrations as stated at the place; for inhibition at 50 µM: read-out: inhibition (maximal inhibition) of mt-CDase activity; for IC50 (50% inhibition of mt-CDase activity): substrate D-erythro-ceramide 0.625 mole %; for type of inhibition (double reciprocal analysis: Km increased, Vmax unchanged): varying D-erythro-ceramide concentration; for increase in ceramide hydrolysis: tested at 0-5 mole % (0-400 μM), [3H]-C16-ceramide 0.625 mole %; for inhibition of mt-CDase activity: inhibitor at 0.6 mole %; for IC50: substrate D-erythro-ceramide 50 μM; for extent of inhibition of ceramidase: sphingosine stereoisomers at higher concentrations (FIG. 4b)
Protocol: The enzymatic activity of mitochondrial ceramidase was determined by either one of the two following methods:
a. Radioactive assay: The mt-CDase activity was determined by measuring the release of radioactive fatty acid from tritiated ceramide ([^3H]-C16-Cer), labeled in the acyl chain. Briefly, organic solutions of ceramide and its analogues were initially mixed together, solvents were completely evaporated under nitrogen, then the dried lipids were dispersed in Triton-X 100 by sonication and vigorous vortexing. The reaction assay contained (in a final volume of 200 μl): enzyme (5-10 ng) and 10 nmoles of tritiated C16-ceramide (1×10^5 dpm) delivered in 100 μl of 1% Triton X-100 micelles in a glycine buffer pH 9.5 (200 mM).
b. HPLC-assay: The Mt-CDase activity was also determined by measuring the amount of sphingosine released. Basically the assay was initially the same as described above but using non-radioactive ceramide. The reaction was stopped with 800 μl of chloroform: methanol (2:1 v/v) mixture followed by the addition of phyto-sphingosine (0.5 nmoles) and dihydro-sphingosine (1 nmole) as internal standard and carrier, respectively. The reaction mix was then extracted with NaOH (50 μl, 1N), and the lower chloroform layer containing the sphingosine was further washed with water (100 μl) and dried. The released sphingosine was quantified as the ortho-phthaldehyde (OPA) derivatives as described (30). […] The solvent system was methyl alcohol: potassium phosphate buffer (5 mM), pH 7.0 (90:10 v/v) at a flow rate of 1 ml/min. […] Activity was determined relative to the phytosphingosine OPA peak.
The effects of various compounds of the invention which are stereochemical and structural analogues of ceramide and sphingosine on mt-CDase were investigated. […] Results were expressed as percent of the control ceramidase activity.

[1] = Table 1, ceramide analogues, hydrolysis of D-erythro-C16 or C18-ceramide at 0.625 mole % (50 μM)
[2] = inhibitor at 0.625 mole % (50 μM)
[3] = Table 2, sphingosine analogues, hydrolysis of D-erythro-ceramide at 0.625 mole % (50 μM)

Chain of mitochondrial ceramidase (Q91XT9 whole entry): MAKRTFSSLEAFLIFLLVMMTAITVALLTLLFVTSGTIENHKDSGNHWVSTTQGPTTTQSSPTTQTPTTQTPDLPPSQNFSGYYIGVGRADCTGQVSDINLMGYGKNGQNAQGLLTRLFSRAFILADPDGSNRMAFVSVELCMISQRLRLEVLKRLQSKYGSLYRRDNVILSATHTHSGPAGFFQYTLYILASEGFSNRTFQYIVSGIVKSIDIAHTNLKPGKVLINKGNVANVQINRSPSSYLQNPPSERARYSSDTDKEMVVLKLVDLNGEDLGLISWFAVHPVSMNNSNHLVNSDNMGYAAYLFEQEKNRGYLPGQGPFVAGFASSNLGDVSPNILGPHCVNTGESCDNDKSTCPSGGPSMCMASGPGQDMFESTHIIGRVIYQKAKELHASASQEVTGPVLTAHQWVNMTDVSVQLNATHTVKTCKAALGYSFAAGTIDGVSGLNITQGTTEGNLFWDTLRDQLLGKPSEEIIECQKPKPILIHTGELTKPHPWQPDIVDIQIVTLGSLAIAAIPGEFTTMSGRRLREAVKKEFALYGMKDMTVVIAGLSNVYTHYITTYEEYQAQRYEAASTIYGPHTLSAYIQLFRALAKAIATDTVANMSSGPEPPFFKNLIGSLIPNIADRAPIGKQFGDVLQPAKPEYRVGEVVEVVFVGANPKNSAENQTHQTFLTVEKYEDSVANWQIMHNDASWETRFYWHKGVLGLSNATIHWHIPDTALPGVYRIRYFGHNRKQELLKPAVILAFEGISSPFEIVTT

Row | Compound | Estimated IC50 (mole %) [1] | IC50 (50% inhibition of mt-CDase activity) | effect on mt-CDase activity (in words) | Estimated IC50 (mole %) [3] | also measured
1 | CCCCCCCCCCCCC/C=C/[C@@H](OC)[C@H](CO)NC(=O)CCCCCCCCCCCCCCC [3-O-Me-C16-Cer, 3-O-methyl-D-erythro-C16-ceramide] | no effect |  |  |  | effect on mt-CDase activity (in words) (listed as 3-O-Me-ceramide): do not interact with the enzyme; effect on mt-CDase activity (in words) (listed as 3-O-methyl ceramide): no effect
2 | CCCCCCCCCCCCCC#CC(=O)[C@@H](N)CO [3-keto-deh-Sph, 3-keto-dehydrosphingosine] |  |  | weaker | weak | inhibition at 50 µM [2]: 15%
3 | CCCCCCCCCCCCC/C=C/[C@@H](OC)[C@@H](N)CO [Compound 3-O-Me-Sph, 3-O-methyl-D-erythro-sphingosine] |  |  |  | no effect | inhibition of mt-CDase activity: no effect
4 | CCCCCCCCCCCCC/C=C/C(=O)[C@@H](N)CO [Compound 3-keto-Sph, 3-keto-sphingosine] |  |  | weaker; also recorded: significant loss of inhibition | weak | inhibition at 50 µM [2]: 35%
5 | CCCCCCCCCCCCC/C=C/[C@@H](O)[C@H](CO)NCCCCCCCCCCCCCCCCCC [Compound C18-Ceramine, N-stearyl-D-erythro-sphingosine] |  |  |  | 0.5 mole % | inhibition at 100 µM (inhibitor at 1.25 mole % (100 μM)): 75%; type of inhibition (double reciprocal analysis: Km increased, Vmax unchanged): competitive inhibitor
6 | CCCCCCCCCCCCC/C=C/[C@@H](O)[C@@H](N)CO [D-e-Sph, D-erythro-sphingosine, reference compound] |  | 0.04 mole % |  | 0.04 mole % | inhibition of mt-CDase activity: totally inhibited; inhibition at 50 µM [2]: 98%; IC50: 3.3 µM
7 | CCCCCCCCCCCCCCC[C@@H](O)[C@@H](N)CO [D-e-dh-Sph, D-erythro-dihydrosphingosine] |  | 0.20 mole % and 0.34 mole % |  | 0.34 mole % | 
8 | CCCCCCCCCCCCC/C=C/[C@@H](O)[C@H](N)CO [D-t-Sph, D-threo-sphingosine] |  |  |  | 0.11 mole % | extent of inhibition of ceramidase: 75%
9 | CCCCCCCCCCCCC/C=C/[C@H](O)[C@H](N)CO [L-e-Sph, L-erythro-sphingosine] |  |  |  | 0.09 mole % | extent of inhibition of ceramidase: 98%
10 | CCCCCCCCCCCCC/C=C/[C@H](O)[C@@H](N)CO [L-t-Sph, L-threo-sphingosine] |  |  |  | 0.14 mole % | extent of inhibition of ceramidase: 60%
11 | CCCCCCCCCCCCC/C=C/[C@@H](O)[C@H](CO)N(C)C [N,N-diMe-Sph, N,N-dimethyl-D-erythro-sphingosine] |  |  | weaker; also recorded: profound loss of activity | weak | maximal inhibition of mt-CDase (inhibitor at 2.5 mole %): 30%
12 | CCCCCCCCCCCCC/C=C/[C@@H](O)[C@H](CO)NC [N-Me-Sph, N-methyl-D-erythro-sphingosine] |  | 0.13 mole % |  | 0.13 mole % | inhibitory effect on mt-CDase (FIG. 6a, concentration not stated directly): 75%
13 | CCCCCCCCCCCCC/C=C/[C@@H](O)[C@@H](N)COP(=O)(O)O [Sph-1-P, D-erythro-sphingosine 1-phosphate] |  |  |  | activator | increase in ceramide hydrolysis: 180%
14 | CCCCCCCCCCCCC/C=C\[C@@H](O)[C@@H](N)CO [cis-D-e-Sph, cis-D-erythro-sphingosine] |  |  | weaker; also recorded: no effect; also recorded: weak inhibitor | weak | maximal inhibition of ceramide hydrolysis (at higher concentrations, greater than 2 mole %): 32%; inhibition at 50 µM [2]: 10%
15 | ceramide [reference compound] |  |  |  |  | Km of hydrolysis (ceramide as substrate): 1.3 mole %
16 | dihydroceramide [reference compound] |  |  |  |  | hydrolysis by mt-CDase (substrate or not, in words): significant loss of activity as a substrate

Second part, led by results:

Row | Estimated IC50 (mole %) [1] | IC50 (50% inhibition of mt-CDase activity) | effect on mt-CDase activity (in words) | Compound | Estimated IC50 (mole %) [3] | also measured
17 | no effect |  |  | CCCCCCCCCCCCC/C=C/[C@@H](O)[C@H](COC)NC(=O)CCCCCCCCCCCCCCC [1-O-Me-C16-Cer, 1-O-methyl-D-erythro-C16-ceramide] |  | effect on mt-CDase activity (in words) (listed as 1-O-Me-ceramide): do not interact with the enzyme; effect on mt-CDase activity (in words) (listed as 1-O-methyl ceramide): no effect
18 | 0.6 mole % | 0.60 mole % |  | CCCCCCCCCCCCC/C=C/C(=O)[C@H](CO)NC(=O)CCCCCCCCCCCCCCC [3-keto-C16-Cer, 3-keto-C16-ceramide] |  | hydrolysis by mt-CDase (substrate or not, in words): served as a substrate; inhibition at 50 µM [2]: 53%; type of inhibition (double reciprocal analysis: Km increased, Vmax unchanged): competitive substrate
19 |  | 0.34 mole % | potent inhibitor | CCCCCCCCCCCCCCCC(=O)C(N)CO (stereo not shown) [3-keto-dh-Sph, 3-keto-dihydrosphingosine] | 0.2 mole % | inhibition (maximal inhibition) of mt-CDase activity [2]: 75%
20 | activator |  | do not interact with the enzyme | CCCCCCCCCCCCC/C=C/[C@@H](O)[C@H](COP(=O)(O)O)NC(=O)CCCCCCCCCCCCCCC [Cer-1-P, D-erythro-C16-ceramide-1-phosphate] |  | increase in ceramide hydrolysis: 220%
21 |  |  | weaker | CCCCCCCCCCCCC/C=C/[C@@H](O)[C@@H](N)COC [Compound 1-O-Me-Sph, 1-O-methyl-D-erythro-sphingosine] | weak | inhibition of mt-CDase activity: ~25%
22 | substrate |  |  | CCCCCCCCCCCCC/C=C/[C@@H](O)[C@H](CO)NC(=O)CCCCCCCCCCCCCCCCC [D-e-C18-Cer, D-erythro-C18-ceramide, reference compound] |  | 
23 |  | 0.25 mole % |  | CCCCCCCCCCCCCC#C[C@@H](O)[C@@H](N)CO [D-e-deh-Sph, D-erythro-dehydrosphingosine] | 0.25 mole % | inhibition at 50 µM [2]: 75%
24 | 0.21 mole % | 0.21 mole % |  | CCCCCCCCCCCCC/C=C/[C@@H](O)[C@@H](CO)NC(=O)CCCCCCCCCCCCCCCCC [D-t-C18-Cer, D-threo-C18-ceramide] |  | IC50: 16.6 µM
25 | 0.26 mole % | 0.26 mole % |  | CCCCCCCCCCCCC/C=C/[C@H](O)[C@@H](CO)NC(=O)CCCCCCCCCCCCCCCCC [L-e-C18-Cer, L-erythro-C18-ceramide] |  | IC50: 20 µM; type of inhibition (double reciprocal analysis: Km increased, Vmax unchanged): competitive
26 | 0.11 mole % | 0.11 mole % |  | CCCCCCCCCCCCC/C=C/[C@H](O)[C@H](CO)NC(=O)CCCCCCCCCCCCCCCCC [L-t-C18-Cer, L-threo-C18-ceramide] |  | IC50: 8.8 µM
27 | no effect |  |  | CCCCCCCCCCCCC/C=C/[C@@H](O)[C@H](CO)N(C)C(=O)CCCCCCCCCCCCCCC [N-Me-C16-Cer, N-methyl-D-erythro-C16-ceramide] |  | effect on mt-CDase activity (in words) (listed as N-Me-Cer): loss of the interaction; effect on mt-CDase activity (in words) (listed as N-Me-ceramide): do not interact with the enzyme; effect on mt-CDase activity (in words) (listed as N-methyl-ceramide): did not affect ceramidase activity
28 | no effect |  | no significant effect | CCCCCCCCCCCCC/C=C\[C@@H](O)[C@H](CO)NC(=O)CCCCCCCCCCCCCCC [cis-D-e-C16-Cer, cis-D-erythro-C16-ceramide] |  | effect on mt-CDase activity (in words) (listed as cis D-erythro-ceramide): did not inhibit the enzyme; effect on mt-CDase activity (in words) (listed as cis-D-e-ceramide): do not interact with the enzyme
29 |  |  | no significant variation | CCCCCCCCCCCCCCCC(=O)O [palmitic acid, reference compound] |  | 

Source: patent publication US20050043534A1, “Modulators of ceramidase and methods of used based thereon” (priority 2001, published 2005)
